Laboratory results as given in patent publication US7855292B2, “Sulfonamide compounds” (Janssen Pharmaceutica NV, priority 2004, dated 2010).

Columns and labels:
CCK2 receptor = target: T1, CCK2 receptor (Homo sapiens, UniProt P32239); assay: CCK2 binding assay ([125I]-BH-CCK-8S displacement, HEKZFP membranes); details: membranes of doxycycline-induced HEKZFP cells, 20 pM [125I]-BH-CCK-8S, 60 min at 21±3° C.; for Ki: read-out: CCK2 pKi (converted)
T1 construct: analyzed for ZFP expression as well as CCK2R induction upon addition of doxycycline to the culture medium; endogenous in cells
T1 sequence (P32239 1-447): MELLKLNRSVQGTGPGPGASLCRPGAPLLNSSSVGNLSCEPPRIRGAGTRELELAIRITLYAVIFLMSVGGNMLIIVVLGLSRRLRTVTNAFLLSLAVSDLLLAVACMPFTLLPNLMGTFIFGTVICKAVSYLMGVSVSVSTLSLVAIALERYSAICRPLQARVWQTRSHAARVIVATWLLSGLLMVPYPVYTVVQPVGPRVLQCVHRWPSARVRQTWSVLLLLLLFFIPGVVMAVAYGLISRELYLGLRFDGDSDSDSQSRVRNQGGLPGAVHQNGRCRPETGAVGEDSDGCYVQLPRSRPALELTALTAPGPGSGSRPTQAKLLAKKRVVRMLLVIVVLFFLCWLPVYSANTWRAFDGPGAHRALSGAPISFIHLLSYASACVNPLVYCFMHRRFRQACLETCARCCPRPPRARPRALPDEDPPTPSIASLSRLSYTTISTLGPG

CCK-1 receptor = target: T2, CCK-1 receptor (Homo sapiens, UniProt P32238); assay: CCK1 binding assay ([125I]-BH-CCK-8S displacement, CHO-K1 membranes); details: membranes of CHO-K1 cells stably transfected with the CCK-1 receptor, 20 pM [125I]-BH-CCK-8S, 0.3 μM PD-134,308 present, 60 min at 21±3° C.; for Ki: read-out: CCK1 pKi (converted)
T2 construct: expressed in transfected cells; host or cells: CHO-K1
T2 sequence (P32238 1-428): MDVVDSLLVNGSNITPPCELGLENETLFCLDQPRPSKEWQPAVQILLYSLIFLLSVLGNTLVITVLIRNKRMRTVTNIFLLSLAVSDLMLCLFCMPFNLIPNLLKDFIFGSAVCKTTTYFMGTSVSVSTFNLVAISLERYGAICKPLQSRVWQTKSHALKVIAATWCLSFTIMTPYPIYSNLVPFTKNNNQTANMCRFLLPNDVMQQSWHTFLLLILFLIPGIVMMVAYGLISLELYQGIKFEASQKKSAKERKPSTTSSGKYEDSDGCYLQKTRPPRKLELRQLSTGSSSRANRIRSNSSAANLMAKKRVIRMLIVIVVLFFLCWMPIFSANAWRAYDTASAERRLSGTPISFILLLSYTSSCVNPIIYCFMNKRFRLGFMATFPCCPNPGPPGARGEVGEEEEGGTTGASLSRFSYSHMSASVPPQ
Outline: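 Membranes from CHO-K1 cells stably expressing CCK-1 incubated 1 h at 21±3° C with 20 pM [125I]-BH-CCK-8S in HEPES buffer pH 7.2 containing 0.3 μM PD-134,308 to block CCK-2. Bound radioactivity read by gamma counting after filtration. pKi derived via Cheng-Prusoff, with specific binding defined using 2-NAP.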

| SMILES | Ki (CCK2 receptor) | Ki (CCK-1 receptor) | CCK2 pKi (CCK2 receptor) | CCK1 pKi (CCK-1 receptor) |
| --- | --- | --- | --- | --- |
| O=C(N[C@@H](Cc1csc2ccccc12)C(=O)O)c1ccc(Cl)cc1NS(=O)(=O)c1cccc2nccnc12 [Example 66, (S)-3-Benzo[b]thiophen-3-yl-2-[4-chloro-2-(quinoxaline-5-sulfonylamino)-benzoylamino]-propionic acid] | 501 nM | 2000 nM |  |  |
| O=C(N[C@@H](Cc1ccc(Cl)cc1Cl)C(=O)O)c1ccc(Br)cc1NS(=O)(=O)c1c(F)cccc1F [Example 41, 2-[4-Bromo-2-(2,6-difluoro-benzenesulfonylamino)-benzoylamino]-3-(2,4-dichloro-phenyl)-propionic acid] | 50.1 nM | 631 nM |  |  |
| C[C@@H](NC(=O)c1ccc(Cl)cc1NS(=O)(=O)c1cccc2nsnc12)[C@@H](O)c1ccccc1 [Example 49, 2-(Benzo[1,2,5]thiadiazole-4-sulfonylamino)-4-chloro-N-((2S,1R)-2-hydroxy-1-methyl-2-phenyl-ethyl)-benzamide] | 2000 nM | 200 nM |  |  |
| O=C(O)/C(=C/c1ccc(Cl)c(Cl)c1)NC(=O)c1cc(Cl)c(Cl)cc1NS(=O)(=O)c1cccc2nsnc12 [Example 144, (Z)-2-[2-(Benzo[1,2,5]thiadiazole-4-sulfonylamino)-4,5-dichloro-benzoylamino]-3-(3,4-dichloro-phenyl)-acrylic acid] | 50.1 nM | 501 nM |  |  |
| CC(CNC(=O)c1ccc(Cl)cc1NS(=O)(=O)c1c(F)cccc1F)c1ccc(C(F)(F)F)cc1 (stereo not shown) [Example 45, 4-Chloro-2-(2,6-difluoro-benzenesulfonylamino)-N-[2-(4-trifluoromethyl-phenyl)-propyl]-benzamide] | 1580 nM | 251 nM |  |  |
| O=C(O)C[C@H](Cc1ccc(Cl)cc1)NC(=O)c1ccc(Cl)cc1NS(=O)(=O)c1cccc2nccnc12 [Example 89, (S)-4-(4-Chloro-phenyl)-3-[4-chloro-2-(quinoxaline-5-sulfonylamino)-benzoylamino]-butyric acid] | 63.1 nM | 7940 nM |  |  |
| O=C(N[C@@H](Cc1ccc(F)c(Br)c1)C(=O)O)c1ccc(I)cc1NS(=O)(=O)c1c(F)cccc1F [Example 127, (S)-3-(3-Bromo-4-fluoro-phenyl)-2-[2-(2,6-difluoro-benzenesulfonylamino)-4-iodo-benzoylamino]-propionic acid] | 79.4 nM | 200 nM |  |  |
| O=C(N[C@@H](Cc1ccc(F)c(Br)c1)C(=O)O)c1cc(Cl)c(Cl)cc1NS(=O)(=O)c1cccc2nccnc12 [Example 160, (S)-3-(3-Bromo-4-fluoro-phenyl)-2-[4,5-dichloro-2-(quinoxaline-5-sulfonylamino)-benzoylamino]-propionic acid] |  |  | 8.2 | 6.8 |
| O=C(NC1Cc2ccccc2C1)c1ccc(Cl)cc1NS(=O)(=O)c1cccc2nsnc12 [Example 50, 2-(Benzo[1,2,5]thiadiazole-4-sulfonylamino)-4-chloro-N-indan-2-yl-benzamide] | 6310 nM | 631 nM |  |  |
| CC(CNC(=O)c1ccc(I)cc1NS(=O)(=O)c1c(F)cccc1F)c1ccc(Cl)c(Cl)c1 (stereo not shown) [Example 42, N-[2-(3,4-Dichloro-phenyl)-propyl]-2-(2,6-difluoro-benzenesulfonylamino)-4-iodo-benzamide] | 3160 nM | 31.6 nM |  |  |
| CC(CNC(=O)c1ccc(Br)cc1NS(=O)(=O)c1c(F)cccc1F)c1ccc(Cl)cc1 (stereo not shown) [Example 24, 4-Bromo-N-[2-(4-chloro-phenyl)-propyl]-2-(2,6-difluoro-benzenesulfonylamino)-benzamide] | 1260 nM | 100 nM |  |  |

Now from value to molecule:

| Ki (CCK2 receptor) | Ki (CCK-1 receptor) | CCK2 pKi (CCK2 receptor) | CCK1 pKi (CCK-1 receptor) | SMILES |
| --- | --- | --- | --- | --- |
| 15.8 nM | 79.4 nM |  |  | O=C(N[C@@H](Cc1ccc(Cl)c(Br)c1)C(=O)O)c1ccc(I)cc1NS(=O)(=O)c1cccc2nsnc12 [Example 91, (S)-2-[2-(Benzo[1,2,5]thiadiazole-4-sulfonylamino)-4-iodo-benzoylamino]-3-(3-bromo-4-chloro-phenyl)-propionic acid] |
| 794 nM | 316 nM |  |  | COC(=O)[C@H](Cc1csc2ccccc12)NC(=O)c1ccc(Cl)cc1NS(=O)(=O)c1cccc2nccnc12 [Example 65, (S)-3-Benzo[b]thiophen-3-yl-2-[4-chloro-2-(quinoxaline-5-sulfonylamino)-benzoylamino]-propionic acid methyl ester] |
| 200 nM | 200 nM |  |  | COC(=O)[C@H](Cc1ccc(F)c(Br)c1)NC(=O)c1ccc(Cl)cc1NS(=O)(=O)c1cccc2nsnc12 [Example 149, (S)-2-[2-(Benzo[1,2,5]thiadiazole-4-sulfonylamino)-4-chloro-benzoylamino]-3-(3-bromo-4-fluoro-phenyl)-propionic acid methyl ester] |
| 39.8 nM | 2510 nM |  |  | O=C(N[C@@H](Cc1ccccc1)C(=O)O)c1ccc(C(F)(F)F)cc1NS(=O)(=O)c1cccc2nsnc12 [Example 26, 2-[2-(Benzo[1,2,5]thiadiazole-4-sulfonylamino)-4-trifluoromethyl-benzoylamino]-3-phenyl-propionic acid] |
| 50.1 nM | 316 nM |  |  | COC(=O)[C@H](Cc1ccc(F)c(Br)c1)NC(=O)c1ccc(I)cc1NS(=O)(=O)c1cccc2nccnc12 [Example 124, (S)-3-(3-Bromo-4-fluoro-phenyl)-2-[4-iodo-2-(quinoxaline-5-sulfonylamino)-benzoylamino]-propionic acid methyl ester] |
| 63.1 nM | 251 nM |  |  | O=C(N[C@@H](Cc1ccc(Cl)c(Br)c1)C(=O)O)c1cc(Cl)c(Cl)cc1NS(=O)(=O)c1cccc2nccnc12 [Example 148, (S)-3-(3-Bromo-4-chloro-phenyl)-2-[4,5-dichloro-2-(quinoxaline-5-sulfonylamino)-benzoylamino]-propionic acid] |
| 1000 nM | 6310 nM |  |  | O=C(N[C@H](C(=O)O)C(c1ccc(Cl)cc1)c1ccc(Cl)cc1)c1ccc(I)cc1NS(=O)(=O)c1cccc2nsnc12 [Example 94, (S)-2-[2-(Benzo[1,2,5]thiadiazole-4-sulfonylamino)-4-iodo-benzoylamino]-3,3-bis-(4-chloro-phenyl)-propionic acid] |
| 5.01 nM | 631 nM |  |  | O=C(N[C@@H](Cc1cccc(Br)c1)C(=O)O)c1ccc(I)cc1NS(=O)(=O)c1cccc2nsnc12 [Example 4, (S)-2-[2-(Benzo[1,2,5]thiadiazole-4-sulfonylamino)-4-iodo-benzoylamino]-3-(3-bromo-phenyl)-propionic acid] |
| 63.1 nM | 1260 nM |  |  | Cc1ccc(C(=O)NC(CO)Cc2ccc(Cl)cc2)c(NS(=O)(=O)c2cccc3nsnc23)c1 (racemic) [Example 12, (±)-2-(Benzo[1,2,5]thiadiazole-4-sulfonylamino)-N-[2-(4-chloro-phenyl)-1-hydroxymethyl-ethyl]-4-methyl-benzamide] |
| 631 nM | 100 nM |  |  | O=C(N[C@@H](Cc1ccc(Cl)c(Cl)c1)C(=O)NCc1ccccc1)c1ccc(Cl)cc1NS(=O)(=O)c1cccc2nsnc12 [Example 129, (S)-2-(Benzo[1,2,5]thiadiazole-4-sulfonylamino)-N-[1-benzylcarbamoyl-2-(3,4-dichloro-phenyl)-ethyl]-4-chloro-benzamide] |
| 251 nM | 158 nM |  |  | COC(=O)[C@H](Cc1ccc(Cl)c(Cl)c1)NC(=O)c1ccc(I)cc1NS(=O)(=O)c1cccc2nsnc12 [Example 154, (S)-2-[2-(Benzo[1,2,5]thiadiazole-4-sulfonylamino)-4-iodo-benzoylamino]-3-(3,4-dichloro-phenyl)-propionic acid methyl ester] |
| 316 nM | 39.8 nM |  |  | COC(=O)[C@H](Cc1ccc(Cl)c(I)c1)NC(=O)c1ccc(I)cc1NS(=O)(=O)c1cccc2nsnc12 [Example 136, (S)-2-[2-(Benzo[1,2,5]thiadiazole-4-sulfonylamino)-4-iodo-benzoylamino]-3-(4-chloro-3-iodo-phenyl)-propionic acid methyl ester] |
